Test results from patent US20200222531A1, “METHODS OF POPULATING PRECIPITATED PARTICLES OF A MODIFIED OR SYNTHESIZED SUBSTANCE IN A TISSUE” (priority 2010, published 2020).

Experiment: Solubility of urushiol in 95% ethanol and in water
Type: physicochemical
Text: The poison ivy allergen, urushiol, is soluble in 95% ethanol but insoluble in water. Intramuscular injection of urushiol in small volumes of 95% ethanol results in precipitation of large numbers of small insoluble particles as the ethanol is rapidly diluted by interstitial or tissue fluid, resulting in a […] enhancement of tolerogenesis per mg administered urushiol. As the most practical way to make an Ara h2 vaccine with the solubility properties needed to exploit the benefit of this delivery system may be a derivative of a process already known to enhance tolerogenesis, the inventors have the opportunity to see if the synergistic application of two methods of tolerogenesis enhancement yields a sufficiently high ratio of tolerogenicity to allergenicity to constitute a predictably safe and effective treatment for peanut allergy.

For urushiol, the “solubility in 95% ethanol” value (95% ethanol) was “soluble” and the solubility in water (water) was “insoluble”.
